Measurements reported in US12270041B2, “ROP—deficient plants having high water use efficiency” (RAMOT AT TEL-AVIV UNIVERSITY LTD., priority 2019, dated 2025).

What was measured:
[1] = tested on: ROS levels in guard cells; experiment: ROS measurements in guard cells (H2DCF fluorescence); assay type: cell-based, Tomato (S. lycopersicum)
Procedure: Reactive oxygen species (ROS) levels in guard cells were monitored using a fluorescence-based assay with 2′,7′-dichlorofluorescien diacetate (H2DCF-DA). Abaxial epidermises of cotyledons were mounted on microscope slides with medical adhesive Telesis V and loaded with stomatal opening buffer with 50 μM H2DCF-DA for 30 min. Excess H2DCF-DA was removed by washing with water, and samples were loaded with 0.1% ethanol (mock) or 10 μM ABA in opening buffer. After 15 min, fluorescence images were collected using a Zeiss-LSM 780 NLO confocal microscope. Fluorescence measured from about thirty stomata of each biological replicate was determined using Image J.

[2] = tested on: stomata of M82 and rop9 mutant cotyledons; experiment: Measurements of stomata aperture (width/length) in excised cotyledons; assay type: cell-based, Tomato (S. lycopersicum)
Procedure: […] assays were carried out as previously described (Puli, M. R. et al., J Exp Bot 63, 1349-1356, 2012). with the following modifications. Cotyledons were excised from M82 or rop9 mutants (10-15 days after sowing in soil) and were transferred immediately to stomatal opening buffer (10 mM MES-KOH, pH 7.0, 50 mM KCl) with or without ABA and treated for 3 h under light (110 to 120 μE m^−2 s^−1). Mock-treated controls were treated with 0.1% vol/vol ethanol. After 3 h, the abaxial epidermis of cotyledons was affixed to a glass slide with Telesis 5 silicone adhesive (Premiere Products) and bright-field images were taken with a Zeiss-LSM 780 NLO confocal microscope. For each biological replicate, width and length of 30 to 40 stomatal apertures were measured using Image J.

[3] = tested on: M82 and rop9 mutant seedlings; experiment: Primary root elongation assay; assay type: in vivo, Tomato (S. lycopersicum); settings: 1 or 5 μM ABA, 48 h
Procedure: Seven-day-old M82 and rop9 mutant seedlings were transferred to 0.5×MS+1% agar plates (without sucrose) supplemented with 0.1% ethanol (mock) or 1 or 5 μM ABA in 0.1% ethanol, and root lengths were marked. Root elongation was measured after 48 h.

[4] = tested on: P5CS1 and RAB18 expression; experiment: QPCR of ABA-responsive genes; assay type: cell-based, Tomato (S. lycopersicum); settings: M82, rop9-1 and rop9-4 cotyledons, 50 μM ABA
Procedure: For expression of ABA induced genes, total RNA was extracted from mock-treated or ABA-treated cotyledons or from 2- to 3-week-old soil-grown plants using the RNeasy Plant Mini Kit (Qiagen). cDNAs were prepared using the High-capacity cDNA Reverse Transcription Kit (Applied Biosystems). Oligonucleotide primers for tubulin, P5CS1, and RAB18 were identical to those used by Nir et al. (2017, ibid). Expression was normalized to tubulin. Gene expression of the M82 mock-treated samples was set to 1, and then remaining samples were calculated proportionately. Data are the means (±SE) of three independent biological replicates.

M82 seeds = experiment: Seed germination assay on ABA-supplemented medium; assay type: in vivo, Tomato (S. lycopersicum); settings: 5 μM ABA, seven days
Procedure: Seeds of M82 and rop9 mutant plants (50 seeds per genotype) were surface sterilized for 2 min in ethanol followed by 20 min in 3% sodium hypochlorite, washed with excess of water (˜100 ml) and sown on 0.5×MS+1% agar plates (without sucrose) supplemented with 0.1% ethanol (mock) or 1 or 5 μM ABA (in 0.1% ethanol). Seeds were kept at 4° C. for 48 h for […] and moved to 25° C. in the dark for germination. The percentage of seeds germinated were determined after seven days.

[5] = tested on: ROP activity in guard cells; experiment: Distribution of GFP-ICR1ΔN ROP activity probe in guard cells; assay type: cell-based; settings: Arabidopsis guard cells, 10 μM ABA, one hour
Procedure: Expression of GFP-ICR1ΔN was induced in 7-days old Arabidopsis seedlings with 5 μM β-estradiol dissolved in 99.5% DMSO. After 24 h of induction plants were treated with control (0.5× Murashige Skoog (MS) medium supplemented with 0.1% ETOH (control) or with 10 μM ABA dissolved in 0.1% ETOH. Analysis of GFP-ICR1ΔN distribution was carried out 1 h after treatments with control or ABA supplemented media using Zeiss LSM 780-NLO confocal microscope by excitation at 488 nm and emission spectrum at 501-546 nm using 40× and 63× water objectives. Image analyses were performed with ZEN 2012 Digital Imaging and Image J.
To follow the regulation of ROP activity in guard cells a fluorescent probe which is specifically expressed in guard cells was generated. The probe consists GFP fused to the […] C-terminal residues of ROP effector ICR1 (between residues 171-344) and was designated GFP-ICRΔN. […] To prevent possible steric hindrance of the ICRΔN moiety by GFP, a flexible linker consisting of 3 repeats of (Gly)4Ser (3×GGGGS) sequence were cloned between the ICRΔN and the GFP moieties. To prevent negative effects that could occur due to long-term expression of a ROP effector, the expression of the probe was induced by estradiol under regulation of the ROP11 promoter. […] The distribution of the probe between the membrane and cytoplasm reflected the degree of ROP activation. […]

Question: How did the H2DCF signal ([1]; M82 guard cells, 10 μM ABA, 15 min) turn out when `CC1=CC(=O)CC(C)(C)[C@@]1(O)/C=C/C(C)=C\C(=O)O` [ABA, Abscisic acid] was run?
Answer: induced significant enhancement

Question: What about the H2DCF signal ([1]; rop9-1 and rop9-4 guard cells, 10 μM ABA, 15 min) of the same compound?
Answer: significantly reduced the signal

Question: And the “stomata aperture (width/length)” value ([2]; M82, rop9-1 and rop9-4 cells, 10 μM ABA (positive control))?
Answer: expected closing of stomata were observed

Question: And the “stomata aperture (width/length)” value ([2]; M82 cotyledons, 1 or 10 μM ABA, 3 h under light)?
Answer: induced stomata closure

Question: What about the root elongation [3] of the same compound?
Answer: inhibited to a similar extent in M82 and the rop9 mutants

Question: What about the “expression of P5CS1 and RAB18” value [4] of the same compound?
Answer: induced to a similar extent by ABA in both wild-type and mutant leaves

Question: What about the seed germination (M82 seeds) of the same compound?
Answer: significantly inhibited

Question: And the “distribution of the probe between plasma membrane and cytoplasm” value [5]?
Answer: significant shift of the probe from the plasma membrane to the cytoplasm

Question: Which H2DCF signal ([1]; rop9-1 and rop9-4 guard cells treated with ABA, 5 μM DPI) does the source give for `c1ccc2c(c1)[I+]c1ccccc1-2` [DPI, Diphenyleneiodonium chloride] here?
Answer: decreased the H2DCF signal

Question: What about the “stomata aperture (width/length)” value ([2]; M82 stomata, 5 μM DPI) of the same compound?
Answer: had no effect

Question: What about the “stomata aperture (width/length)” value ([2]; rop9-1 and rop9-4 stomata, 5 μM DPI) of the same compound?
Answer: induced opening
